{"source": "paper PMC6385203", "about": "“Mutations in the palm domain disrupt modulation of acid-sensing ion channel 1a currents by neuropeptides” (Scientific Reports, 2019)", "target": "T1, ASIC1a N416C (Homo sapiens, UniProt P78348, N416C)", "T1 construct": "expressed in transfected cells; host or cells: Xenopus laevis oocytes injected with cRNA", "T1 sequence (P78348 1-528 N416C)": "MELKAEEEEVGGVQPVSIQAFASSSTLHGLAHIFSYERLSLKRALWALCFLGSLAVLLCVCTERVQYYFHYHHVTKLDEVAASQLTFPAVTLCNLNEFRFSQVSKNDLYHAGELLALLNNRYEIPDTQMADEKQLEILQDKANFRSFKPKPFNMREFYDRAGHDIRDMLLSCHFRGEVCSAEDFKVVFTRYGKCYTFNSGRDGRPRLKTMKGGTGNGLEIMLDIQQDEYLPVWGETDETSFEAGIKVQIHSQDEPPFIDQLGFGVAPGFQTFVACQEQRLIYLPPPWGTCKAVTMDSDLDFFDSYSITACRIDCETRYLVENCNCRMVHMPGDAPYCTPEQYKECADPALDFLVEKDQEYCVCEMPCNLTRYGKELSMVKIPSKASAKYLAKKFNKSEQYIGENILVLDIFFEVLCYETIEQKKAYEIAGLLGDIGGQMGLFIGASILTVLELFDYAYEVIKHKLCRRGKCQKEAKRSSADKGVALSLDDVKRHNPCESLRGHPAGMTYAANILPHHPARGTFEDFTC", "assay": "Disappearance of FRRFa-induced Isust on washout, N416C", "type": "cell-based", "conditions": "washout after 50 μM FRRFa 45 s, n = 9", "experimental": "Figure 6 Mutations of the palm change FRRFa modulation of ASIC1a. Mutants containing “-ET” in their name had been exposed during 3 min to 1 mM MTSET prior to the experiment. (a) Representative current traces of the mutant E418C in the absence and presence of 50 μM FRRFa. (b) Bar graph of the Isust/Ipeak ratio induced by pH5 of WT and mutants as indicated (n = 5–41). For (b,g–i) *p < 0.05; **p < 0.01, ***p < 0.001, ****p < 0.0001, different from WT. (c) Ratio of 50 μM FRRFa-induced increase in Isust/Ipeak (n = 5–41). (d) Ratio of 500 μM FRRFa-induced increase in Isust/Ipeak (n = 5–11). For (b–d) ^#p < 0.05; ^##p < 0.01; ^###p < 0.001; ^####p < 0.0001; ratio different from the ratio in WT. (e) FRRFa concentration-response curve of the Isust/Ipeak current ratio induced by pH5 in oocytes expressing N416C, n = 8. The WT curve is shown for comparison (n = 7–11). (f) Time course of disappearance of the FRRFa-induced sustained current in the N416C mutant and in WT. 50 μM FRRFa was applied for 45 s, and then washed out. […]\nElectrophysiological measurements were performed 1–2 days after cRNA injection. Ion currents were recorded using two-electrode voltage-clamp at a holding potential of −60 mV with a Dagan TEV-200 amplifier (Minneapolis, MN). […] The amplitude of the sustained current was measured in the last two seconds of the pH5 perfusion. […]", "note": "Peptide text beside a SMILES is read from it.", "data": [{"smiles": "N=C(N)NCCC[C@H](NC(=O)[C@H](CCCNC(=N)N)NC(=O)[C@@H](N)Cc1ccccc1)C(=O)N[C@@H](Cc1ccccc1)C(N)=O", "note": "[FRRFa, Phe-Arg-Arg-Phe-amide] (H-FRRF-NH2)", "values": [{"measurement": "koff", "value": "0.027 ± 0.003", "unit": "s⁻¹"}]}]}
